In patent US20250127813A1, “COMBINATION DRUG” (OTSUKA PHARMACEUTICAL CO., LTD., priority 2021, published 2025):
Entries after “also recorded” stand apart in the source; their conditions may differ. Where two headings read alike, the source gives them in different places.

Tests used:
NALM6-luc2 = tested on: NALM6-luc2
Protocol: 6-week-old NOG mice produced by In-Vivo Science Co., Ltd., were obtained, and tumor cells were intravenously transplanted into the mice at 7 weeks of age to prepare tumor-bearing mice. The day before the transplantation, busulfex (BSF) was intraperitoneally administered at 20 mg/kg. During the breeding period, the mice were housed with 5 mice per group and bred in a P2A breeding room set to a temperature of 24° C. (actual measurement: 19.7 to 25.0° C.), humidity of 50% (actual measurement: 38.6 to 58.5%), and illumination of 12 hours/day (8:00 a.m. to 8:00 p.m.). During the breeding period, the mice were allowed free access to radiation-sterilized solid feed for mice (CL-2, produced by Clea Japan, Inc.) and autoclave-sterilized tap water placed in a water bottle.
CD19 CAR-T cells were intravenously administered once according to the group constitution on the same day as grouping. The IAP antagonist also started to be administered on the same day as grouping and was orally or intravenously administered according to the group constitution table.
The evaluation period was set to 3 to 4 weeks. Grouping and pharmacological evaluation were performed based on tumor luminescence values as determined by IVIS (trademark). Luminescence value measurement by IVIS (trademark) and body weight measurement were performed twice a week.
For NALM6-luc2, after resuspension, a portion of the cell suspension was taken, dead cells were stained with AOPI Staining Solution, and the number of viable cells was counted with a blood cell measuring device. A cell suspension was prepared by diluting the cells with RPMI 1640 to 1×10^7 cells/mL, based on the measurement results of viable cell count of the cells. Similarly, in a low tumor volume system, a cell suspension was prepared by diluting the cells with serum-free RPMI 1640 to achieve a concentration of 1×10^6 cells/mL.
After the mice were retained using a retainer, a cell suspension was transplanted at 1×10^6 cells/0.1 mL/body using a 27G Myjector (1 mL, produced by Terumo Corporation) to the tail vein of each mouse with no anesthesia. In the low tumor volume system, a cell suspension at 1×10^5 cells/0.1 mL/body was transplanted.
In accordance with the dosing regimen shown in FIG. 6, NALM6-luc2 was transplanted the day after treating the […] with busulfex. On the third day after the transplantation, luminescence values were measured using the IVIS (trademark) Lumina X5 In-Vivo imaging system (produced by PerkinElmer, Co., Ltd.). Using the luminous values as an indicator and using SAS software R9.4 (produced by SAS Institute Japan), the mice were divided into groups of 5 mice each by the stratified random sampling method.
1) A suspension of CD19 CAR-T cells was administered to the tail vein at the time of grouping. For the dosage, the number of viable CD19 CAR-T cells was counted and a cell suspension prepared according to the group constitution table was administered once at 0.1 mL/body. For the administration, a Myjector syringe with a 27G needle was used.
5) Birinapant was intraperitoneally administered at a dose of 10 mL/kg according to the group composition table. Tolinapant, LCL161, and AT406 were orally administered at a dose of 10 mL/kg according to the group composition table using a sonde in the same manner. For intraperitoneal administration, an insulin syringe with a 26G needle was used in place of the sonde. For oral administration, a needle was used in place of the sonde to administer each drug.
VivoGlo™-luciferin (produced by Promega) was dissolved in D-PBS(−) to achieve a concentration of 30 mg/mL and then cryopreserved at −20° C. under light-shielded conditions. On the day of measurement, dissolved VivoGlo™-luciferin was diluted with an equivalent amount of D-PBS(−) and stored at room temperature under light-shielded conditions until use for testing. Based on the body weight measured in advance, VivoGlo™-luciferin was intraperitoneally administered in a volume of 10 mL/kg.

MDA-MB-231 = details: 16 mg/kg, daily oral administration; References 1 and 2; cited from earlier work
MM.1S-luc2 = test: Combination of tolinapant and activated integrin β7 CAR-T in MM.1S-luc2 tumor-bearing NOG mice; assay type: in vivo, mouse
Protocol: (§1) Each mouse was identified with a number attached to the tail of the mouse. During the breeding period, the mice were housed in groups of 5 mice each and bred in a breeding room at a temperature of 24° C.
The evaluation period was set to up to day 14 or day 21. Grouping and pharmacological evaluation were performed using tumor luminescence values as determined by IVIS as an indicator. The luminescence value as determined by IVIS and body weight were measured twice a week.
After grouping, the individuals were identified by marking on the tail of each mouse.
For the measurement, IVIS (trademark) Lumina X5 was used.

NALM6 = test: Combination of tolinapant and CD19 CAR-KHYG-1 in NALM6 subcutaneous tumor-bearing NOG mice; assay type: in vivo, mouse
Protocol: as §1
After grouping, CD19 CAR KHYG-1 cells and KHYG-1 cells were intratumorally administered 4 times in total according to the group constitution.
The evaluation period was set up to day 17. Grouping and pharmacological evaluation were performed using the results of tumor volume measurement with a caliper as an indicator. The tumor volume measurement and body weight measurement were performed twice a week and before each administration. […]
On the 21th day after the transplantation, the long diameter and the short diameter were measured and the tumor volume was calculated. […]
4) For KHYG-1 cell administration solution and CD19 CAR-KHYG-1 cell administration solution, the number of viable cells was counted and a cell suspension with the cell density being adjusted according to the group composition table was prepared and intratumorally administered twice a week at 0.1 mL/body (4 times in total).
The tumor diameter was determined by measuring the short diameter and the long diameter using an electronic caliper (produced by Mitutoyo Corporation). After tumor cell transplantation, the tumor diameter was measured twice a week. […]

[1] = combined use with CD19 CAR-T, AUC up to day 14
[2] = combined use with CD19 CAR-T, AUC up to day 17
[3] = combined use with CD19 CAR-T, maximum tumor volume (luminescence value)

C[C@@H]1CN(CC(=O)N2CC(C)(C)c3nc(CO)c(Cc4ccc(F)cc4)cc32)[C@@H](CN2CCOC[C@H]2C)CN1 [Tolinapant, 1-[6-[(4-fluorophenyl)methyl]-5-(hydroxymethyl)-3,3-dimethyl-2H-pyrrolo[3,2-b]pyridin-1-yl]-2-[(2R,5R)-5-methyl-2-[[(3R)-3-methylmorpholin-4-yl]methyl]piperazin-1-yl]ethanone]
maximum effect / drug efficacy-enhancement effect of combination with tolinapant compared with other IAP antagonists (NALM6-luc2; combination with CD19 CAR-T, versus AT406, LCL161, birinapant): the combination with tolinapant was superior; also recorded: a higher drug efficacy-enhancement effect than combinations with any other IAP antagonist | t-Test using AUC as an indicator (day 14), Tolinapant versus AT406 (NALM6-luc2; [1]): <0.05 | t-Test using AUC as an indicator (day 14), Tolinapant versus Birinapant (NALM6-luc2; [1]): <0.05 | t-Test using AUC as an indicator (day 14), Tolinapant versus LCL161 (NALM6-luc2; [1]): <0.05 | t-Test using AUC as an indicator (day 17), Tolinapant versus AT406 (NALM6-luc2; [2]): <0.05 | t-Test using AUC as an indicator (day 17), Tolinapant versus Birinapant (NALM6-luc2; [2]): <0.05 | t-Test using AUC as an indicator (day 17), Tolinapant versus LCL161 (NALM6-luc2; [2]): <0.05 | t-Test using AUC as an indicator (day 17), Tolinapant versus AT406 (NALM6-luc2; combined use with CD19 CAR-T, AUC up to day 17, listed as tolinapant): a significance due to combined use of tolinapant could be observed | t-Test using the maximum tumor volume as an indicator, Tolinapant versus AT406 (NALM6-luc2; [3]): <0.05 | t-Test using the maximum tumor volume as an indicator, Tolinapant versus Birinapant (NALM6-luc2; [3]): <0.05 | t-Test using the maximum tumor volume as an indicator, Tolinapant versus LCL161 (NALM6-luc2; [3]): <0.05 | t-Test using the maximum tumor volume as an indicator, Tolinapant versus AT406 (NALM6-luc2; combined use with CD19 CAR-T, maximum tumor volume (luminescence value), listed as tolinapant): a significant difference | effect of tolinapant + 1×10^5 cells CD19 CAR-T compared with 1×10^6 cells CD19 CAR-T alone (NALM6-luc2; tolinapant 16 mg/kg qd po + CD19 CAR-T 1×10^5 cells/body iv): an effect equivalent to the effect achieved by using 1×10^6 cells of CD19 CAR-T alone was observed on day 14; also recorded: better tumor regression was observed on day 14 and thereafter | combination effect of tolinapant and CD19 CAR-T (tumor luminescence value) (NALM6-luc2; tolinapant 16 mg/kg qd po + CD19 CAR-T 1×10^5 cells/body iv, versus tolinapant only or CD19 CAR-T only): significantly improved effect (p<0.05); also recorded: a significant combination effect was observed on day 7 and thereafter; also recorded: significant, highly reproducible results | efficacy of tolinapant administered alone (NALM6-luc2; tolinapant alone, 16 mg/kg, daily oral administration): showed no efficacy; also recorded: no effect | efficacy of tolinapant in MDA-MB-231 xenograft mice (MDA-MB-231): exhibited efficacy | combination effect of tolinapant and aITGB7 CAR-T (tumor luminescence value) (MM.1S-luc2; tolinapant 16 mg/kg po every day + aITGB7 CAR-T 3×10^4 cells/body iv, evaluated for 21 days): A significant combination effect was observed; also recorded: tumor regression was clearly observed on day 11 and thereafter; also recorded: a significant synergistic effect was observed; also recorded: significant, highly reproducible results | effect of tolinapant administered alone on MM.1S (MM) (MM.1S-luc2; tolinapant alone): no effect | combination effect of tolinapant and CD19 CAR-KHYG-1 (tumor volume) (NALM6; tolinapant 16 mg/kg po every day + CD19 CAR-KHYG-1 1×10^7 cells/body intratumoral Day 0, 4, 7, 11, evaluated for 17 days): A significant combination effect was observed; also recorded: a proliferation suppression effect was clearly shown on day 7 and thereafter; also recorded: significant combination effects were observed on day 17; also recorded: significant, highly reproducible results | antitumor effect of tolinapant alone (NALM6; tolinapant alone, 16 mg/kg po every day): no antitumor effects were observed
